Laboratory results from ChEMBL document CHEMBL1151457, “Colistin heteroresistance in acinetobacter and its association with previous colistin therapy” (Antimicrob Agents Chemother, 2008).
Active and inactive are the calls of the source. The calls are words filed in the database; no cut-off is given here.

Key:
Format in all cases: functional, organism-based
Acinetobacter [1] = assay: Antibacterial activity against heteroresistant Acinetobacter baumannii-calcoaceticus complex isolated from total cumulative patients preexposed to 325 to 900 mg of drug after 20 to 24 hrs by broth microdilution method
Acinetobacter [2] = assay: Antimicrobial activity against heteroresistant-Acinetobacter baumannii-calcoaceticus complex isolated from patients after 20 to 24 hrs by broth microdilution method
Acinetobacter [3] = assay: Antibacterial activity against heteroresistant Acinetobacter baumannii-calcoaceticus complex isolated from total cumulative patients preexposed to 325 to 900 mg of drug assessed as colony forming unit at 8 ug/ml after 20 to 24 hrs by broth microdilution method
Acinetobacter [4] = assay: Antibacterial activity against Acinetobacter baumannii-calcoaceticus complex assessed as colony forming unit at 8 ug/ml after 20 to 24 hrs by broth microdilution method
Acinetobacter [5] = assay: Antibacterial activity against heteroresistant Acinetobacter baumannii-calcoaceticus complex isolated from total cumulative patients preexposed to 325 to 900 mg of drug at 2 ug/ml after 20 to 24 hrs by broth microdilution method
Acinetobacter [6] = assay: Antibacterial activity against heteroresistant Acinetobacter baumannii-calcoaceticus complex isolated from total cumulative patients preexposed to 325 to 900 mg of drug at 4 ug/ml after 20 to 24 hrs by broth microdilution method
Acinetobacter [7] = assay: Antibacterial activity against heteroresistant Acinetobacter baumannii-calcoaceticus complex isolated from total cumulative patients preexposed to 325 to 900 mg of drug measured after two passages with 8 ug/ml of drug on sheep blood plates by broth microdilution method
Acinetobacter [8] = assay: Antimicrobial activity against susceptible-Acinetobacter baumannii-calcoaceticus complex isolated from patients after 20 to 24 hrs by broth microdilution method

GENTAMICIN
Activity (Acinetobacter [1]): Active

COLISTIN
MIC (Acinetobacter [2]): > 8 µg/mL
Activity (Acinetobacter [3]): 0.000211%
Activity (Acinetobacter [4]): 5.3e-05%
Activity (Acinetobacter [5]): inactive
Activity (Acinetobacter [6]): inactive
MIC (Acinetobacter [7]): > 16 µg/mL
MIC (Acinetobacter [8]): < 1 µg/mL

CC1(C)[C@H](C(=O)O)N2C(=O)C[C@H]2S1(=O)=O
Activity (Acinetobacter [1]): Active
